# From patent US10676746B2, “Methods for identifying therapeutic targets and treating monitoring cancers” (Fred Hutchinson Cancer Research Center, priority 2013, dated 2020)
# “Also recorded” adds a separate entry of the source.
# Experiments:
# MSCC cells = assay: Dose-response curves with kinase inhibitors, CellTiterGlo viability, MSCC cells; assay type: cell-based, murine; conditions: for IC50: Mus musculus
# Protocol: (§1) Kinase inhibition dose response curves were performed with six kinase inhibitors (MK-1775 (a.k.a., […]), TAE684, PI828, PIK93, PP2, PF-562271) against kinase targets (WEE1, ALK, PI3K, PIK4CB, FYN, FAK (ILK surrogate)), respectively. Kinase inhibitors: MK-1775 (S1525), PIK93 (S1489), TAE684 (S1108) were obtained from Selleck Chemicals (Houston, Tex.); PI828 (2814), PP2 (1407) from Tocris Bioscience (Mpls, Minn.), and PF-562271 from Synkinase (San Diego, Calif.). All HNSCC (UMSCC-17A, UM-SCC47A, PCI-15A, PCI-15B, UM-SCC14A, UM-SCC14C) and MSCC (CK1: p53+/+ and CK4: p53−/−) cells were plated at ˜5-10×10^3 cells/100 μl per well, and incubated at 37° C. for ˜24 hours on 96-well assay plates (Corning Inc.). Serial dilutions of the kinase inhibitors and vehicle control (DMSO) were prepared in 1 mL assay blocks at 3× working concentration to generate dose-response curves ranging from 100 μM to 0.03 μM. All serial dilutions were prepared using cell culture media. Approximately 72 hours post-treatment, cells were assessed for metabolic activity via ATP using CellTiterGlo (Promega), following the protocol outlined by the manufacturer utilizing an FLx800, and/or a Synergy H4 Hybrid multi-mode reader (Biotek). All assays were performed in triplicate and normalized to wells with no treatment. Dose-response curves and IC50 values were generated using GraphPad Prism Version 5 (Parameters: nonlinear regression fit; equation=log (inhibitor) vs. response−variable slope (four parameters); single constraint).
# HNSCC cells [1] = assay: Dose-response curves with kinase inhibitors, CellTiterGlo viability, HNSCC cells; assay type: cell-based, human; conditions: for IC50: Homo sapiens; for effect on viability of p53 mutant HNSCC cells: autologous pairs UMSCC-14A, UMSCC-14C, PCI-15A, PCI-15B, result in words
# Protocol: as §1
# [2] = system: HNSCC cells (PCI-15B, UMSCC-17A); assay: Mitotic entry and cell cycle analysis by flow cytometry; assay type: cell-based, human; conditions: for mitotic entry, phospho-histone H3 (serine 10): 1 μM
# Protocol: (§2) Mitotic entry was assessed as previously described (Aarts, M. et al, Cancer Discov 2012; 2:524-39). Briefly, HNSCC cells (PCI-15B, UMSCC-17A) were treated with 1 μM MK-1775 for 8 and 24 hours, and all cells were harvested, washed, and incubated with rabbit monoclonal antibody to phospho-histone H3 (Serine10) (Cell Signaling Technology, Cat. No. 3465, Danvers, Mass.) for 2 hours at RT, washed, and DNA stained with 20 μg/ml propidium iodide, RNaseA in PBS (Sigma-Aldrich; Cat. Nos. P4170, R6513). Flow cytometric analysis was performed utilizing a BD FACS Canto II, and profiles analyzed with BD Cell Quest software (Becton Dickinson, CA). Caspase-3/7 dependent apoptosis was assessed as per protocol (Promega, Cat. No. G8091) utilizing a SynergyH4 Hybrid Reader (Biotek, VT). AUCs were calculated for all treatments and vehicle (DMSO) for all cell lines utilizing two measurements over a 48-hour period with three concentrations (30 nm, 100 nm, 1 μM) of MK-1775.
# HNSCC cells [3] = assay: Caspase-3/7 dependent apoptosis assay; assay type: cell-based, human; conditions: p53 mutant cells
# Protocol: as §2
# PCI-15B xenografts = assay: Xenograft tumor model; assay type: in vivo, mice
# WEE1 = assay: Immunoblotting of xenograft tumor lysates; assay type: in vivo; conditions: oral MK-1775 treated mice vs vehicle
# Text: Tumor tissues were minced and homogenized on ice in M-PER Mammalian Protein Extraction Reagent supplemented with Halt Protease and Phosphatase Inhibitor Cocktail (Thermo Fisher Scientific). Extracted proteins were quantified by a BCA protein assay (Thermo Fisher Scientific). […] Anti-WEE1 (Cat. No. 4936), anti-phospho-WEE1 ([…]) (Cat. No. 4910), anti-CDC2 (Cat. No. 9112), and anti-phospho-CDC2 (Tyr15) (Cat. No. 4539) antibodies were purchased from Cell Signaling Technology (Danvers, Mass.). The secondary antibodies used were ZyMaxTM horseradish peroxidase (HRP) conjugated goat-anti-rabbit IgG (Life Technologies). HRP was detected with SuperSignal West Pico Chemiluminescent Substrate kit (Thermo Fisher Scientific).
# [4] = parameters: species or system mice; conditions: mouse, in vivo
# Protocol: PCI-15B cells were inoculated subcutaneously into the right flanks of 28 eight-week old NOD/SCID IL2 gamma null mice (NSG) provided by the Olson laboratory at the Fred Hutchinson Cancer Research Center. When tumors reached a palpable mass of >50 mm^3, mice were randomly assigned into four treatment groups of seven mice each and all measurements and treatment regimens were carried out using a double-blind protocol. The WEE1 inhibitor MK-1775 (S1525-Selleck Chemicals, Houston, Tex.) was delivered by oral gavage (30 mg/kg) twice per week for 4 weeks in dimethylsulfoxide in 0.5% methylcellulose (M0512, Sigma Aldrich) in a 1:14 suspension. Cisplatin (P4394, cis-diammineplatinum (II) dichloride, Sigma Aldrich) was delivered via intra-peritoneal injection (4.0 mg/kg) once a week for 4 weeks. The volume of the implanted tumor was measured weekly with calipers and tumor volumes calculated using the formula: V=L×W^2/2; in which V, volume (mm^3); L, largest diameter (mm); W, smallest diameter (mm). All animal protocols were approved by the Fred Hutchinson Cancer Research Center Laboratory Animal Care and Use Committee.
# [5] = p53−/− (p53 deficient) MSCC cells
smiles,measurement,setting,value
NC(=O)Nc1cc(-c2cccc(F)c2)sc1C(=O)N[C@H]1CCCNC1 [AZD7762],IC50,MSCC cells; p53 wild type MSCC cells,2200 nM
same,IC50,MSCC cells; [5],130 nM
C=CCn1c(=O)c2cnc(Nc3ccc(N4CCN(C)CC4)cc3)nc2n1-c1cccc(C(C)(C)O)n1 [MK-1775],IC50,"HNSCC cells [1]; UMSCC14A, p53 mutant UMSCC-14A and UMSCC-14C cells and p53 wild type UMSCC-47 cells (intermediate)",580 to 1100 nM
same,IC50,HNSCC cells [1]; p53 mutant PCI-15A and PCI-15B HNSCC cells,140 to 170 nM
same,IC50,HNSCC cells [1]; p53 wild type UMSCC-17A cells,4500 nM
same,effect on viability of p53 mutant HNSCC cells,HNSCC cells [1],sensitive; also recorded: impairs viability
same,IC50,MSCC cells; p53 wild type MSCC cells,4500 nM
same,IC50,MSCC cells; [5],220 nM
same,IC50 lower in p53−/− MSCC cells compared to p53 wild type cells,MSCC cells; p53−/− vs p53 wild type MSCC,20 fold
same,4N DNA content,[2]; p53 mutant cells,loss
same,subG1 DNA content,[2]; p53 mutant cells,increase
same,"mitotic entry, phospho-histone H3 (serine 10)",[2]; p53 mutant cells (PCI-15B),unscheduled mitotic entry
same,"mitotic entry, phospho-histone H3 (serine 10)",[2]; p53 wild type cells (UMSCC-17A),not
same,apoptotic marker caspase 3/7,HNSCC cells [3],activation
same,inhibition of growth of HNSCC tumors as compared to vehicle,"PCI-15B xenografts; 30 mg/kg oral gavage twice weekly, 4-week protocol",66%
same,phosphorylation of WEE1 in tumor lysates,WEE1,reduced phosphorylation
same,phosphorylation of WEE1 substrate CDC2 in tumor lysates,WEE1,reduced phosphorylation
same,tolerability of dosing regime,[4],well-tolerated
CN(c1ncccc1CNc1nc(Nc2ccc3c(c2)CC(=O)N3)ncc1C(F)(F)F)S(C)(=O)=O [PF-562271],effect on viability of p53 mutant HNSCC cells,HNSCC cells [1],sensitive; also recorded: impairs viability
Nc1ccc(-c2cccc3c(=O)cc(N4CCOCC4)oc23)cc1 [PI828],effect on viability of p53 mutant HNSCC cells,HNSCC cells [1],impairs viability
CC(=O)Nc1nc(C)c(-c2ccc(Cl)c(S(=O)(=O)NCCO)c2)s1 [PIK93],effect on viability of p53 mutant HNSCC cells,HNSCC cells [1],sensitive; also recorded: impairs viability
CC(C)(C)n1nc(-c2ccc(Cl)cc2)c2c(N)ncnc21 [PP2],effect on viability of p53 mutant HNSCC cells,HNSCC cells [1],impairs viability
COc1cc(N2CCC(N3CCN(C)CC3)CC2)ccc1Nc1ncc(Cl)c(Nc2ccccc2S(=O)(=O)C(C)C)n1 [TAE684],effect on viability of p53 mutant HNSCC cells,HNSCC cells [1],sensitive; also recorded: impairs viability
"N.N.[Cl][Pt][Cl] [cisplatin, cis-diammineplatinum (II) dichloride]",tumor regression (reduction),"PCI-15B xenografts; cisplatin 4.0 mg/kg i.p. once a week, 4 weeks, MK-1775 given 24 hours after cisplatin",60%
